{"source": "patent US10898540B2", "about": "“Peptide having effects of increasing telomerase activity and extending telomere, and composition containing same” (GEMVAX & KAEL CO., LTD., priority 2016, dated 2021)", "key": {"[1]": {"tested_on": "telomere", "assay": "Telomere length (TeloTAGGG telomere length assay, Southern blot) in brain tissue of 3xTg-AD mice after subcutaneous administration", "type": "in vivo, mouse", "settings": "3xTg-AD mice, 0.01, 0.1 and 1 mg/kg s.c. three times a week for 2 months, whole brain tissue, FIG. 2", "description": "(§1) To test the PEP1 therapeutic effect on Alzheimer's disease, Alzheimer transgenic mice (3×Tg-AD) were purchased from Jackson Laboratory.\n(§2) To investigate the effect of PEP1 according to concentration after breeding, experimental animals were divided and then administered experimental materials as follows. As a positive control material, donepezil was used, the experimental animals were divided into five groups, and each group included 10 mice. Administered materials and doses per group are as follows. • Group 1: Saline • Group 2: 0.01 mg/kg ofPEP1 • Group 3: 0.1 mg/kg of PEP1 • Group 4: 1 mg/kg of PEP1 • Group 5: 1 mg/kg of donepezil\nPEP1, saline and donepezil were subcutaneously injected at each concentration three times a week for 2 months from the 12th month, one month later (at the age of 15 months), the mice (10 mice per group) were anesthetized, and reperfusion was carried out through the heart of each mouse using 0.9% saline to remove blood. Afterward, the brain was extracted, and separated into the hippocampus and the whole brain area, thereby obtaining brain tissue, and the tissue was rapidly frozen using liquid nitrogen. […]"}, "[2]": {"tested_on": "telomerase", "assay": "Telomerase activity (TeloTAGGG telomerase PCR ELISA, RTA) in brain tissue of 3xTg-AD mice after subcutaneous administration", "type": "in vivo, mouse", "settings": "for increase of telomerase activity compared with saline-administered group (Group 1): s.c. three times a week for 2 months, whole brain tissue at age 15 months", "description": "as §1, §2\nPEP1, saline and donepezil were subcutaneously injected at each concentration three times a week for 2 months from the 12th month, one month later (at the age of 15 months), the mice (10 mice per group) were anesthetized, and reperfusion was carried out through the heart of each mouse using 0.9% saline to remove blood. Afterward, the brain was extracted, and separated into the hippocampus and the whole brain area, thereby obtaining brain tissue, and the tissue was rapidly frozen using liquid nitrogen.\nTo investigate PEP1-induced telomerase activity, TeloTAGGG telomerase PCR ELISAPLUS (Cat #12 013 789 001, Roche Boehringer-Mannheim, IN, USA) was used, the entire brain tissues prepared according to the method of Example 2-1 were pulverized, 200 μl of an ice-cold lysis buffer was added to […] of the tissue, incubated on ice for 30 minutes, and centrifuged at 16,000×g for 20 minutes to isolate 175 μl of a protein. 10 μg of the protein was quantified and mixed with a reaction mixture and an internal standard, followed by PCR (see FIG. 4). Hybridization was carried out, a sample was added to a specially-coated MP module to perform a reaction, and then absorbance was measured at 450 or 690 nm using an ELISA reader. Relative telomerase activities (RTAs) were calculated using a calculation formula (see FIG. 3)."}}, "data": [{"sequence": "EARPALLTSRLRFIPK (hTERT derived peptide fragment) [PEP1, hTERT-derived peptide consisting of 16 amino acids, telomerase location [611-626], made by Fmoc solid phase synthesis]", "values": [{"measurement": "telomere length", "setting": "[1]", "value": "increased according to PEP1 administration concentration"}, {"measurement": "increase of telomerase activity compared with saline-administered group (Group 1)", "setting": "[2]; 0.1 mg/kg (Group 3)", "value": 266, "unit": "%"}, {"measurement": "increase of telomerase activity compared with saline-administered group (Group 1)", "setting": "[2]; Group 4 (dose printed as 'mg/kg'; Group 4 = 1 mg/kg)", "value": 370, "unit": "%"}, {"measurement": "telomerase activity compared with donepezil-administered group (Group 5)", "setting": "[2]; Group 4 vs donepezil Group 5, s.c. three times a week for 2 months, FIG. 1", "value": "statistically significant increase"}]}]}
